Legend:
Type in all cases: in vivo, human
[1] = Large Hemispheric Infarction study: blood glucose monitoring; conditions: one patient, receiving 10 wt % dextrose solution; infusion rate reduced by 30% and glucose stabilized
Experimental: (§1) In order to determine the efficacy of SUR1-TRPM4 channel inhibitors for reducing or treating neurological conditions associated with cell swelling and CNS or cerebral edema, a randomized double blind placebo controlled clinical study was conducted. […] Within the “per protocol” group, 77 patients who were confirmed centrally to have brain lesions from 82 cc to 300 cc. Forty one of subjects were administered the test drug and 36 subjects were administered the placebo. The administration of the test drug was as follows: a bolus of 0.13 mg of the SUR1-TRPM4 channel inhibitor was administered over approximately 2 minutes followed by a continuous infusion of 0.16 mg/hr for 6 hours, and then a continuous infusion of 0.11 mg/hr for 66 hours, for a total dosing period of 72 hours. The total daily dose of Study Drug on Day 1, Day 2 and Day 3 was 3.12 mg, 2.67 mg, and 2.67 mg, respectively.
a) During the Double Blind Placebo Controlled Study, there was a lab confirmed blood glucose level that dropped to 51 mg/dL which was recorded for one of the patients who was receiving a 10 wt % dextrose solution.

[2] = tested on: MMP-9; experiment: Large Hemispheric Infarction study: MMP-9 values in blood samples; conditions: blood samples at 24 hours and at 72 hours, averaged
Experimental: as §1
Additionally, MMP-9 values based in blood samples were taken at 24 hours and at 72 hours for the study participants and then averaged. MMP-9 levels are known to rise after stroke and are believed to represent blood brain barrier dysfunction. The MMP-9 average values are shown in Table 8 below, and graphed in FIG. 7.

[3] = tested on: subjects with TBI having lesional blood (contusion); experiment: Randomized double blind placebo controlled study in Traumatic Brain Injury (MRI edema, GOSE)
Experimental: The administration of the test drug was as follows: a bolus of 0.13 mg of the SUR1-TRPM4 channel inhibitor was administered over approximately 2 minutes followed by a continuous infusion of 0.16 mg/hr for 6 hours, and then a continuous infusion of 0.11 mg/hr for 66 hours, for a total dosing period of 72 hours. The total daily dose of Study Drug on Day 1, Day 2 and Day 3 was 3.12 mg, 2.67 mg, and 2.67 mg, respectively. All subjects were assessed by MRI scans at baseline and 72 hours.
The 14 subjects (7 drug and 7 placebo) identified as having evidence of lesional blood (i.e., blood associated with a contusion) at baseline and having MRI scans at both baseline and 72 hours were assessed for edema using MIM software version 5.6. Blinded readers ascertained x, y, z measurements of the total apparent contusion using T2 images, unless missing, in which case, DTI images were used. Only contusions that could be reliably measured (measuring at least about 1 cc) were measured. Readers also ascertained the volume measurements of hemorrhages in a similar manner using SWI images. Linear measurements were captured in centimeters (cm) and all volumes in cubic centimeters (cc). Volumes were calculated using the ABC/2 standard. The volume of apparent edema was calculated as the difference between the overall apparent contusion volume and the volume of the hemorrhage. For analysis, if there were multiple lesions, the volumes of all lesions meeting the threshold were combined.

[4] = tested on: subjects with Large Hemispheric Infarction (brain lesions of 82 cc to 300 cc); experiment: Randomized double blind placebo controlled study in Large Hemispheric Infarction: clinical outcomes (mortality, mRS, Barthel Index, EQ-5D); design: median mRS / EQ-5D Median Difference: scale not given here; conditions: for Difference in 90 Day Score of mRS 0-4: Test Drug Group versus Placebo Group
Experimental: as §1
The incidence of mortality in the individuals was recorded at both 30 and 90 days following treatment. The Reduction in Mortality as a result of administration of the SUR1-TRPM4 channel inhibitor is shown in Table 2 below, and graphed in FIG. 1.
Additional mortality data was collected as it related to drug and placebo treatment with and without a Decompressive Craniectomy (DC). Essentially, the incidence of mortality was recorded for study participants that passed away following a DC prior to the end of the study period. The incidence of mortality when a DC occurred compared to no DC is shown in Table 3 below, and graphed in FIG. 2.
The subjects in this study were also tested using the modified Rankin Scale (mRS). One way to assess outcome in large strokes, such as those studied, is to determine the percentage of patients in each group who have a mRS of 0-4 at 90 days after stroke. The results of the 90 day mRS study is shown in Table 4 below, and graphed in FIG. 3.
The Barthel Index is another functional outcome that can be used to assess outcome of stroke patients. The subjects of the study were also scored using the Barthel index both initially and again at about 90 days. The degree of improvement in the Barthel index scores are shown in Table 5 below and graphed in FIG. 4.
Mortality can be multifactorial and may depend on factors such as preexisting comorbidities and risk factors. […] Specifically, cause of death was adjudicated by three adjudicators blinded to study drug group. Imaging and clinical data were used to determine, among other outcomes, cause of death. […] Consistent with our proposed mechanism of action, mortality attributable to edema was the driver behind reductions in overall mortality.
The magnitude of difference between placebo and treatment arms on the mRS as an ordinal scale is frequently measured using the Mann-Whitney test and a common odds ratio (OR) may be derived using the proportional odds methodology to explore effect size. In accordance with this, a common OR of 1.2 represents a clinically meaningful difference. The OR for effect size in patients ≤70 in the per-protocol population was 2.49, which represents a substantial clinical effect.
The Barthel Index (BI) is a measure of activities of daily living. It has been widely used and accepted in stroke trials and is one of the more prevalent scales used in acute stroke. In one example, a minimum clinically important change that is beyond measurement error is about 20 points on the 100-point scale, which was used as a benchmark in this study. The median delta or differences seen in the ≤70 per-protocol population at 90 days, 6 months, and 12 months between drug and placebo were 35, 27.5, and 45, respectively, all exceeding the accepted threshold. A common interpretation of the BI considers a score of ≤40 to be a clearly bad outcome, whereas a score of ≥60 is a clearly good outcome.
The EuroQol-5D (EQ-5D) is a generic instrument used to assess quality of life in a variety of conditions, including stroke. […]

[5] = Full per-protocol population, 6 Months
[6] = Full per-protocol population, 12 Months
[7] = PP ≤ 9 hr (drug in 9 hours or less), N 33 (14/19)
[8] = patients ≤70, per-protocol population
[9] = ≤70 per-protocol population, 6 Months
[10] = ≤70 per-protocol population, 12 Months
[11] = ≤70 per-protocol population, Day 90

Q: For COc1ccc(Cl)cc1C(=O)NCCc1ccc(S(=O)(=O)NC(=O)NC2CCCCC2)cc1 [glyburide], which “lab confirmed blood glucose level” value [1] is on record?
A: 51 mg/dL

Q: What about the “MMP-9 Average” value [2] of the same compound?
A: 193.18 ng/mL

Q: What about the “evolution (growth) of edema from baseline to 72 hours” value ([3]; 7 drug subjects with lesional blood, MRI volume, placebo 10.28-fold) of the same compound?
A: 2.14 fold

Q: What about the “mean Glasgow Coma Scale Extended score (GOSE)” value ([3]; at 180 days, placebo 6.17) of the same compound?
A: 6

Q: What about the “drug-related effects in non-lesioned subjects or areas of the brain without a lesion” value ([3]; in vivo) of the same compound?
A: No drug-related effects were detected

Q: And the “% Death 30 days” value ([4]; 41 individuals, per protocol)?
A: 14.6%

Q: What about the “% Death 90 days” value ([4]; 41 individuals, per protocol) of the same compound?
A: 17.1%

Q: What about the “EQ-5D Median Difference” value [4, 5] of the same compound?
A: 0.34

Q: And the “Survival OR” value [4, 5]?
A: 2.63

Q: What about the “mRS OR” value [4, 5] of the same compound?
A: 1.88

Q: What about the “EQ-5D Median Difference” value [4, 6] of the same compound?
A: 0.14

Q: And the “Survival OR” value [4, 6]?
A: 2.54

Q: What about the “mRS OR” value [4, 6] of the same compound?
A: 1.64

Q: What about the “EQ-5D Median Difference” value ([4]; Full per-protocol population, 90 Days, drug vs placebo) of the same compound?
A: 0.30

Q: What about the “Survival OR” value ([4]; Full per-protocol population, Day 90) of the same compound?
A: 2.74

Q: And the “mRS OR” value ([4]; Full per-protocol population, Day 90, ordinal)?
A: 1.91

Q: And the “Mortality OR” value ([4]; PP population, N 77 (36/41), logistic regression)?
A: 2.75

Q: And the “mRS 0-6 OR” value ([4]; PP population, N 77 (36/41), ordinal logistic regression)?
A: 1.91

Q: And the “Mortality OR” value [4, 7]?
A: 2.96

Q: What about the “mRS 0-6 OR” value [4, 7] of the same compound?
A: 2.31

Q: And the “Difference in 90 Day Score of mRS 0-4” value [4]?
A: 14.6%

Q: And the “Difference in 90 Day Score of mRS 0-4” value ([4]; listed as Test Drug)?
A: +14.6%

Q: What about the “"zero effect" lesion size” value ([4]; by extrapolation, mRS shift OR of 1) of the same compound?
A: about 100 cc

Q: And the “EQ-5D median difference between drug and placebo” value ([4]; full and ≤70 per-protocol populations, all time points)?
A: greater than 0.12

Q: And the “Mortality with DC” value ([4]; number of deaths among 13 individuals receiving decompressive craniectomy)?
A: 2

Q: And the “Mortality without DC” value ([4]; number of deaths among 28 individuals with no decompressive craniectomy)?
A: 5

Q: What about the “Mortality 90 days (includes 30 day values)” value ([4]; number of deaths among 41 individuals, per protocol) of the same compound?
A: 7

Q: And the “Mortality 30 days” value ([4]; number of deaths among 41 individuals, per protocol, 30 days following treatment)?
A: 6

Q: What about the “effect size at the mRS 0-3 dichotomization” value [4, 8] of the same compound?
A: 14%

Q: And the “effect size at the mRS 0-4 dichotomization” value [4, 8]?
A: 22%

Q: And the “Adjudicated mortality due to edema” value ([4]; per-protocol group (1/41), placebo 22.22% (8/36), p=0.01)?
A: 2.44%

Q: And the “90 Day Score of mRS 0-4” value ([4]; percentage of patients with mRS 0-4 at 90 days after stroke)?
A: 61.4%

Q: What about the “median mRS” value ([4]; treated group, median of 5 in the placebo) of the same compound?
A: 4

Q: What about the “EQ-5D Median Difference” value [4, 9] of the same compound?
A: 0.29

Q: And the “Survival OR” value [4, 9]?
A: 3.47

Q: What about the “mRS OR” value [4, 9] of the same compound?
A: 2.33

Q: And the “EQ-5D Median Difference” value [4, 10]?
A: 0.30

Q: What about the “Survival OR” value [4, 10] of the same compound?
A: 4.00

Q: And the “mRS OR” value [4, 10]?
A: 2.24

Q: And the “EQ-5D Median Difference” value ([4]; ≤70 per-protocol population, 90 Days)?
A: 0.29

Q: And the “Survival OR” value [4, 11]?
A: 3.88

Q: What about the “mRS OR” value [4, 11] of the same compound?
A: 2.49
